# Tests used:
# [1] = system: human pancreatic line MIA PaCa-2; assay: MIA PaCa-2 model in Nude mice, humanized antibodies with different binding activities; format: in vivo; details: gemcitabine 400 mg/kg via the tail vein 3 and 10 days after the inoculation
# Protocol: 5×10^6 cells of human pancreatic line MIA PaCa-2 were suspended in PBS containing 50% GFR-Matrigel (Corning Inc., Cat. 354230), and the suspension was inoculated subcutaneously into the axilla of 4-week old female Nude mice (BALB/c Slc-nu/nu, purchased from Japan SLC, Inc). […] As a control drug, gemcitabine (purchased from Eli Lilly Japan K.K.), which is a standard therapeutic agent for pancreatic cancer, was administered to cancer-bearing mice via the tail vein at 400 mg/kg 3 and 10 days after the inoculation (n=6). The major axis and the minor axis of the inoculated tumor were measured twice a week using an electronic digital caliper (available from MITUTOYO CORPORATION) to calculate the tumor volume by the following formula. Tumor volume (mm^3)=½×minor axis (mm)×minor axis (mm)×major axis (mm)
# [2] = system: human pancreatic line MIA PaCa-2; assay: MIA PaCa-2 pancreatic xenograft model in NOD-scid mice, humanized antibodies; format: in vivo; details: gemcitabine 400 mg/kg ip 7 and 14 days after the inoculation
# Protocol: 5×10^6 cells of human pancreatic line MIA PaCa-2 were suspended in PBS containing 50% GFR-Matrigel (Corning Inc., Cat. 354230), and the suspension was inoculated subcutaneously into the axilla of 4 week-old female NOD-scid mice (NOD. CB17-Prkdc/J, purchased from CHARLES RIVER LABORATORIES JAPAN, INC). […] As a control drug, gemcitabine (purchased from Eli Lilly Japan K.K.) that is a standard therapeutic agent for pancreatic cancer was administered intraperitoneally to cancer-bearing mice at 400 mg/kg 7 and 14 days after the inoculation (n=5). The major axis and the minor axis of the inoculated tumor were measured twice a week using an electronic digital caliper (available from MITUTOYO CORPORATION) to calculate the tumor volume by the following formula.
# [3] = system: gemcitabine-resistant MIA PaCa-2 tumors; assay: Gemcitabine-resistant MIA PaCa-2 pancreatic cancer tumor model in NOD-scid mice; format: in vivo, human
# Text: The antitumor efficacy of the CD147 antibody in a gemcitabine-resistant pancreatic cancer tumor model was investigated. 5×10^6 cells of human pancreatic line MIA PaCa-2 were suspended in PBS containing 50% GFR-Matrigel (Corning Inc., Cat. 354230), and the suspension was inoculated subcutaneously into the axilla of 5 week-old female NOD-scid mice (NOD. CB17-Prkdc/J, CHARLES RIVER LABORATORIES JAPAN, INC). Gemcitabine (Eli Lilly Japan K.K.), which is a standard therapeutic agent for pancreatic cancer, was intraperitoneally administered at 400 mg/kg 6 days after the inoculation, and grouping of mice in which gemcitabine-resistant tumors were confirmed to grow was performed based on tumor size one week later. Gemcitabine was intraperitoneally administered to the control group at 400 mg/kg (n=5) 13 days (grouping date) and 20 days after the inoculation. […] The major axis and the minor axis of the inoculated tumor were measured twice a week using an electronic digital caliper (available from MITUTOYO CORPORATION) to calculate the tumor volume by the following formula. […]
# [4] = system: human pancreatic line BxPC-3; assay: SMAD4-negative BxPC-3 pancreatic cancer-bearing model in BALB/c-nu mice; format: in vivo; details: gemcitabine 200 mg/kg via the tail vein 8, 15, 22 days after the inoculation
# Text: The transcription factor, SMAD4, is known as one of the molecules important for activation of SMAD signaling (Zang, et al., Current Biology, 270-276, 1997). It is known that SMAD signaling is partially impaired due to genetic defects of SMAD4 in some pancreatic cancers (Hahn, et al., Science, 350-353, 1996). […] 2.5×10^6 cells of human pancreatic line BxPC-3 (ATCC, Cat. CRL-1687) were suspended in PBS containing […] (Corning Inc., Cat. 354234), and the suspension was inoculated subcutaneously into the axilla of 6 week-old female BALB/c-nu mouse (CAnN. Cg-Foxn1nu/CrlCrlj, purchased from CHARLES RIVER LABORATORIES JAPAN, INC). […] As a control drug, gemcitabine (Eli Lilly Japan K.K., Gemzar®) that is a therapeutic agent for pancreatic cancer was administered to mice bearing tumor via the tail vein at 200 mg/kg 8, 15, 22 days after the inoculation (n=5). The major axis and the minor axis of the inoculated tumor were measured twice a week using an electronic digital caliper (available from MITUTOYO CORPORATION) to calculate the tumor volume by the following formula. Tumor volume (mm^3)=½×minor axis (mm)×minor axis (mm)×major axis (mm)
compound,measurement,setting,value
"Nc1ccn([C@@H]2O[C@H](CO)[C@@H](O)C2(F)F)c(=O)n1 [gemcitabine, reference compound]",tumor growth inhibition rate,[1],66%
same,tumor disappearance (in words),[2],no tumor disappearance was recognized
same,tumor growth inhibition rate,[2]; NOD-scid mice,71%
same,average tumor size,"[3]; gemcitabine 400 mg/kg ip 6, 13 and 20 days after the inoculation, 28 days after the inoculation",1269 mm^3
same,regressing tumors (in words),[3]; gemcitabine 400 mg/kg ip alone,no regressing tumors were observed
same,sensitivity of BxPC-3 tumor (in words),[4],resistant

# Reference: patent publication US11459387B2, “Anti-CD147 antibody” (DAIICHI SANKYO COMPANY, LIMITED, priority 2017, dated 2022)
